Publication PMC5218480 (PLoS ONE, 2017)

Tested on: MV-4-11 cells
Assay: Gene expression microarray analysis (Affymetrix PrimeView) and GSEA
Assay type: cell-based, human
Set-up: RFU PODN (11730768_x_at) / Fold change /veh PODN (11730768_x_at) / RFU LINC00158 (11744669_a_at) / Fold change /veh LINC00158 (11744669_a_at) / RFU DUSP10 (11751237_a_at) / Fold change /veh DUSP10 (11751237_a_at) / RFU ID3 (11757404_x_at) / Fold change /veh ID3 (11757404_x_at) / RFU PLEKHG5 (11737974_s_at) / Fold change /veh PLEKHG5 (11737974_s_at) / RFU LRRC4B (11730491_at) / Fold change /veh LRRC4B (11730491_at) / RFU GIMAP4 (11747438_a_at) / Fold change /veh GIMAP4 (11747438_a_at) / RFU KRT8 (11758183_x_at) / Fold change /veh KRT8 (11758183_x_at) / RFU CNN1 (11734310_a_at) / Fold change /veh CNN1 (11734310_a_at) / RFU VPS37D (11726825_at) / Fold change /veh VPS37D (11726825_at) / RFU C10orf10 (11716522_x_at) / Fold change /veh C10orf10 (11716522_x_at) / RFU KIR2DL2 /// KIR2DL4 /// KIR2DL5A /// KIR2DL5B /// KIR2DS1 /// KIR2DS2 /// KIR2DS3 /// KIR2DS4 /// KIR3DL3 /// KIR3DL3 /// KIR3DS1 (11738374_at) / Fold change /veh KIR2DL2 /// KIR2DL4 /// KIR2DL5A /// KIR2DL5B /// KIR2DS1 /// KIR2DS2 /// KIR2DS3 /// KIR2DS4 /// KIR3DL3 /// KIR3DL3 /// KIR3DS1 (11738374_at) / RFU C1QL1 (11718748_at) / Fold change /veh C1QL1 (11718748_at) / RFU TMPRSS4 (11747572_a_at) / Fold change /veh TMPRSS4 (11747572_a_at) / RFU HAMP (11756126_x_at) / Fold change /veh HAMP (11756126_x_at) / RFU RNFT2 (11725882_a_at) / Fold change /veh RNFT2 (11725882_a_at) / RFU NR4A2 (11747474_a_at) / Fold change /veh NR4A2 (11747474_a_at) / RFU ABCC12 (11746883_a_at) / Fold change /veh ABCC12 (11746883_a_at) / RFU TMEM136 (11760407_x_at) / Fold change /veh TMEM136 (11760407_x_at) / RFU CLDN22 /// WWC2 (11732394_at) / Fold change /veh CLDN22 /// WWC2 (11732394_at) / RFU HLA-DPB1 (11760878_x_at) / Fold change /veh HLA-DPB1 (11760878_x_at) / RFU SPINT1 (11716480_a_at) / Fold change /veh SPINT1 (11716480_a_at) / RFU GAP43 (11754022_s_at) / Fold change /veh GAP43 (11754022_s_at) / RFU A4GNT (11735810_at) / Fold change /veh A4GNT (11735810_at) / RFU PRB3 (11715151_x_at) / Fold change /veh PRB3 (11715151_x_at) / RFU TUBB4B (11761932_at) / Fold change /veh TUBB4B (11761932_at) / RFU CAPN14 (11732068_a_at) / Fold change /veh CAPN14 (11732068_a_at) / RFU TMCC2 (11721928_a_at) / Fold change /veh TMCC2 (11721928_a_at) / RFU IRGQ (11745062_a_at) / Fold change /veh IRGQ (11745062_a_at) / RFU FAM174B (11720279_a_at) / Fold change /veh FAM174B (11720279_a_at) / RFU TMPRSS4 (11748680_a_at) / Fold change /veh TMPRSS4 (11748680_a_at) / RFU FAM212B (11763350_a_at) / Fold change /veh FAM212B (11763350_a_at) / RFU PLEKHG5 (11743358_a_at) / Fold change /veh PLEKHG5 (11743358_a_at) / RFU ZSCAN30 (11745921_a_at) / Fold change /veh ZSCAN30 (11745921_a_at) / RFU CMKLR1 (11741424_a_at) / Fold change /veh CMKLR1 (11741424_a_at) / RFU LOC101060620 /// MAPK8IP1 (11723275_at) / Fold change /veh LOC101060620 /// MAPK8IP1 (11723275_at) / RFU SPTSSB (11747773_x_at) / Fold change /veh SPTSSB (11747773_x_at) / RFU PRSS12 (11739890_at) / Fold change /veh PRSS12 (11739890_at) / RFU BIN1 (11741810_x_at) / Fold change /veh BIN1 (11741810_x_at) / RFU WNT11 (11732464_a_at) / Fold change /veh WNT11 (11732464_a_at) / RFU C10orf10 (11716521_a_at) / Fold change /veh C10orf10 (11716521_a_at) / RFU C5orf56 (11738089_at) / Fold change /veh C5orf56 (11738089_at) / RFU CYB561 (11721691_x_at) / Fold change /veh CYB561 (11721691_x_at) / RFU ANKRD19P (11752326_a_at) / Fold change /veh ANKRD19P (11752326_a_at) / RFU OR2T12 /// OR2T33 /// OR2T8 (11738714_s_at) / Fold change /veh OR2T12 /// OR2T33 /// OR2T8 (11738714_s_at) / RFU VCAN (11748164_a_at) / Fold change /veh VCAN (11748164_a_at) / RFU JSRP1 (11732532_at) / Fold change /veh JSRP1 (11732532_at) / RFU KRTAP10-11 (11738290_x_at) / Fold change /veh KRTAP10-11 (11738290_x_at) / RFU MYO3A (11730013_a_at) / Fold change /veh MYO3A (11730013_a_at) / RFU EBF3 (11725865_a_at) / Fold change /veh EBF3 (11725865_a_at) / RFU CAMK2N1 (11719241_x_at) / Fold change /veh CAMK2N1 (11719241_x_at) / RFU C5orf56 (11738088_a_at) / Fold change /veh C5orf56 (11738088_a_at) / RFU OLFML3 (11715873_a_at) / Fold change /veh OLFML3 (11715873_a_at) / RFU LOC100653217 /// NTM (11731650_a_at) / Fold change /veh LOC100653217 /// NTM (11731650_a_at) / RFU MAPK11 (11762145_a_at) / Fold change /veh MAPK11 (11762145_a_at) / RFU FIZ1 (11724087_x_at) / Fold change /veh FIZ1 (11724087_x_at) / RFU OASL (11726364_x_at) / Fold change /veh OASL (11726364_x_at) / RFU SOX15 (11748057_x_at) / Fold change /veh SOX15 (11748057_x_at) / RFU CD79A (11719716_a_at) / Fold change /veh CD79A (11719716_a_at) / RFU HIST1H1D (11736915_at) / Fold change /veh HIST1H1D (11736915_at) / RFU CASKIN2 (11723855_a_at) / Fold change /veh CASKIN2 (11723855_a_at) / RFU LOC730098 (11760151_x_at) / Fold change /veh LOC730098 (11760151_x_at) / RFU OR4N2 (11742367_at) / Fold change /veh OR4N2 (11742367_at) / RFU PRRT2 (11749266_a_at) / Fold change /veh PRRT2 (11749266_a_at) / RFU SNX32 (11753110_a_at) / Fold change /veh SNX32 (11753110_a_at) / RFU CDHR5 (11726645_a_at) / Fold change /veh CDHR5 (11726645_a_at) / RFU RCAN1 (11760418_a_at) / Fold change /veh RCAN1 (11760418_a_at) / RFU FAM167A (11723789_a_at) / Fold change /veh FAM167A (11723789_a_at) / RFU FAM26E (11764081_at) / Fold change /veh FAM26E (11764081_at) / RFU ISYNA1 (11749810_s_at) / Fold change /veh ISYNA1 (11749810_s_at) / RFU ACY1 (11761880_at) / Fold change /veh ACY1 (11761880_at) / RFU 11764098_at / Fold change /veh 11764098_at / RFU SAMD14 (11745864_x_at) / Fold change /veh SAMD14 (11745864_x_at) / RFU NPB (11741838_a_at) / Fold change /veh NPB (11741838_a_at) / RFU TMPRSS6 (11731388_a_at) / Fold change /veh TMPRSS6 (11731388_a_at) / RFU KRTAP10-2 (11738614_at) / Fold change /veh KRTAP10-2 (11738614_at) / RFU ARHGAP8 /// PRR5-ARHGAP8 (11727945_x_at) / Fold change /veh ARHGAP8 /// PRR5-ARHGAP8 (11727945_x_at) / RFU KRTAP5-7 /// NADSYN1 (11734609_at) / Fold change /veh KRTAP5-7 /// NADSYN1 (11734609_at) / RFU RASL12 (11751679_a_at) / Fold change /veh RASL12 (11751679_a_at) / RFU CDKN2B (11736163_a_at) / Fold change /veh CDKN2B (11736163_a_at) / RFU PRF1 (11729649_at) / Fold change /veh PRF1 (11729649_at) / RFU, ZNF638 /// ZNF638-IT1 / Fold change vs veh, ZNF638 /// ZNF638-IT1 / RFU, PANK3 / Fold change vs veh, PANK3 / RFU, SH3YL1 / Fold change vs veh, SH3YL1 / RFU, ZEB2 / Fold change vs veh, ZEB2 / RFU, NRIP1 / Fold change vs veh, NRIP1 / RFU, PTTG1IP / Fold change vs veh, PTTG1IP / RFU, CAPN2 / Fold change vs veh, CAPN2 / RFU, MED14 / Fold change vs veh, MED14 / RFU, SNORA58 / Fold change vs veh, SNORA58 / RFU, C1orf63 / Fold change vs veh, C1orf63 / RFU, LRRFIP1 / Fold change vs veh, LRRFIP1 / RFU, NDUFAF7 / Fold change vs veh, NDUFAF7 / RFU, SLC12A2 / Fold change vs veh, SLC12A2 / RFU, IBTK / Fold change vs veh, IBTK / RFU, ESF1 / Fold change vs veh, ESF1 / Fold change vs veh, TMEM50B / RFU, TAOK1 / Fold change vs veh, TAOK1 / RFU, ACBD3 / Fold change vs veh, ACBD3 / RFU, TMA16 / Fold change vs veh, TMA16 / RFU, RWDD3 / Fold change vs veh, RWDD3 / RFU, BCAT1 / Fold change vs veh, BCAT1 / RFU, EDEM3 / Fold change vs veh, EDEM3 / RFU, TMEM33 / Fold change vs veh, TMEM33 / RFU, WDR75 / Fold change vs veh, WDR75 / RFU, AHCTF1 / Fold change vs veh, AHCTF1 / RFU, TFRC / Fold change vs veh, TFRC / RFU, ZDHHC17 / Fold change vs veh, ZDHHC17 / RFU, NOM1 / Fold change vs veh, NOM1 / RFU, ARL8B / Fold change vs veh, ARL8B / RFU, ZBTB11 / Fold change vs veh, ZBTB11 / RFU, TAMM41 / Fold change vs veh, TAMM41 / RFU, KIAA1704 /// LOC100996395 / Fold change vs veh, KIAA1704 /// LOC100996395 / RFU, ING1 / Fold change vs veh, ING1 / RFU, TRMT61B / Fold change vs veh, TRMT61B / RFU, FUBP3 / Fold change vs veh, FUBP3 / RFU, TP53 / Fold change vs veh, TP53 / RFU, TNKS2 / Fold change vs veh, TNKS2 / RFU, ZFP14 / Fold change vs veh, ZFP14 / RFU, ACTR2 / Fold change vs veh, ACTR2 / RFU, PPP3R1 / Fold change vs veh, PPP3R1 / RFU, PIK3R1 / Fold change vs veh, PIK3R1 / RFU, HNRNPA1 / Fold change vs veh, HNRNPA1 / RFU, RNF170 / Fold change vs veh, RNF170 / RFU, ZNF28 / Fold change vs veh, ZNF28 / RFU, RNGTT / Fold change vs veh, RNGTT / RFU, OGT / Fold change vs veh, OGT / RFU, BRD1 / Fold change vs veh, BRD1 / RFU, MARS / Fold change vs veh, MARS / RFU, ZNF655 / Fold change vs veh, ZNF655 / RFU, FAHD1 / Fold change vs veh, FAHD1 / RFU, BDP1 / Fold change vs veh, BDP1 / RFU, LRRCC1 / Fold change vs veh, LRRCC1 / RFU, ARID1A / Fold change vs veh, ARID1A / RFU, ZNF146 / Fold change vs veh, ZNF146 / RFU, ZNF330 / Fold change vs veh, ZNF330 / RFU, GPN3 / Fold change vs veh, GPN3 / RFU, C9orf123 / Fold change vs veh, C9orf123 / RFU, N4BP2L2 / Fold change vs veh, N4BP2L2 / RFU, ARFIP1 / Fold change vs veh, ARFIP1 / RFU, FAM179B / Fold change vs veh, FAM179B / RFU, BCL10 / Fold change vs veh, BCL10 / RFU, UHRF1BP1L / Fold change vs veh, UHRF1BP1L / RFU, BET1 / Fold change vs veh, BET1 / RFU, CNOT2 / Fold change vs veh, CNOT2 / RFU, ZNF268 / Fold change vs veh, ZNF268 / Fold change vs veh, ZNF507 / RFU, DGCR2 / Fold change vs veh, DGCR2 / RFU, WDSUB1 / Fold change vs veh, WDSUB1 / Fold change vs veh, HSP90B1 /// MIR3652 / RFU, ADSS / Fold change vs veh, ADSS / RFU, GK / Fold change vs veh, GK / RFU, ZNF148 / Fold change vs veh, ZNF148 / RFU, TAF9 / Fold change vs veh, TAF9 / RFU, SLC1A5 / Fold change vs veh, SLC1A5 / RFU, SLMO2 / Fold change vs veh, SLMO2 / RFU, ABCC4 / Fold change vs veh, ABCC4 / RFU, LOC101060439 /// RAP1B / Fold change vs veh, LOC101060439 /// RAP1B / RFU, RFX7 / Fold change vs veh, RFX7 / RFU, GTPBP10 / Fold change vs veh, GTPBP10 / RFU, CNEP1R1 / Fold change vs veh, CNEP1R1 / RFU, BIVM-ERCC5 /// ERCC5 / Fold change vs veh, BIVM-ERCC5 /// ERCC5 / RFU, ILF3 / Fold change vs veh, ILF3 / RFU 11762660_at / Fold change /veh 11762660_at / RFU VCAN (11757783_s_at) / Fold change /veh VCAN (11757783_s_at) / RFU DDX43 (11728927_at) / Fold change /veh DDX43 (11728927_at) / RFU KRT8 (11758188_x_at) / Fold change /veh KRT8 (11758188_x_at) / RFU NKD1 (11759106_at) / Fold change /veh NKD1 (11759106_at) / RFU SRD5A1 (11742802_a_at) / Fold change /veh SRD5A1 (11742802_a_at) / RFU TPSAB1 /// TPSB2 (11721975_s_at) / Fold change /veh TPSAB1 /// TPSB2 (11721975_s_at) / RFU GSTM3 (11746129_a_at) / Fold change /veh GSTM3 (11746129_a_at) / RFU IL23R (11737362_x_at) / Fold change /veh IL23R (11737362_x_at) / RFU TMEM51 (11727254_a_at) / Fold change /veh TMEM51 (11727254_a_at) / RFU PIWIL2 (11732686_x_at) / Fold change /veh PIWIL2 (11732686_x_at) / RFU ORM1 (11744905_x_at) / Fold change /veh ORM1 (11744905_x_at) / RFU CCDC152 (11743942_at) / Fold change /veh CCDC152 (11743942_at) / RFU ECM1 (11717891_a_at) / Fold change /veh ECM1 (11717891_a_at) / RFU IL23R (11748794_a_at) / Fold change /veh IL23R (11748794_a_at) / RFU TNFAIP8L3 (11732012_x_at) / Fold change /veh TNFAIP8L3 (11732012_x_at) / RFU MBOAT4 (11741988_at) / Fold change /veh MBOAT4 (11741988_at) / RFU 11764193_at / Fold change /veh 11764193_at / RFU TMEM53 (11763286_at) / Fold change /veh TMEM53 (11763286_at) / RFU MAGEB2 (11727129_at) / Fold change /veh MAGEB2 (11727129_at) / RFU TMEM200A (11744735_a_at) / Fold change /veh TMEM200A (11744735_a_at) / RFU CCDC152 (11751479_a_at) / Fold change /veh CCDC152 (11751479_a_at) / RFU FAM211A (11726209_a_at) / Fold change /veh FAM211A (11726209_a_at) / RFU RGS16 (11746705_a_at) / Fold change /veh RGS16 (11746705_a_at) / RFU VCAN (11755009_s_at) / Fold change /veh VCAN (11755009_s_at) / RFU RHOB (11743442_s_at) / Fold change /veh RHOB (11743442_s_at) / RFU RGS16 (11720943_a_at) / Fold change /veh RGS16 (11720943_a_at) / RFU RGS16 (11720944_at) / Fold change /veh RGS16 (11720944_at) / RFU, VPS4B / Fold change vs veh, VPS4B / RFU, CREB1 / Fold change vs veh, CREB1 / RFU, DNAJC13 / Fold change vs veh, DNAJC13 / RFU, GNAQ / Fold change vs veh, GNAQ / RFU, CDK5R1 / Fold change vs veh, CDK5R1 / RFU, ZRANB3 / Fold change vs veh, ZRANB3 / RFU, CUL4A / Fold change vs veh, CUL4A / RFU, CCNY / Fold change vs veh, CCNY / RFU, UFL1 / Fold change vs veh, UFL1 / RFU, COG3 / Fold change vs veh, COG3 / RFU, DIAPH2 / Fold change vs veh, DIAPH2 / RFU, SKA2 / Fold change vs veh, SKA2 / RFU, AFF3 / Fold change vs veh, AFF3 / RFU, LMF1 / Fold change vs veh, LMF1 / RFU, IPO11 / Fold change vs veh, IPO11 / RFU, DFFB / Fold change vs veh, DFFB / RFU, FOXP1 / Fold change vs veh, FOXP1 / RFU, CARD8 / Fold change vs veh, CARD8 / RFU, STRN3 / Fold change vs veh, STRN3 / RFU, ADK / Fold change vs veh, ADK / RFU, RASSF2 / Fold change vs veh, RASSF2 / RFU, WIPF1 / Fold change vs veh, WIPF1 / RFU, LARP1B / Fold change vs veh, LARP1B / RFU, RASA1 / Fold change vs veh, RASA1 / RFU, RB1 / Fold change vs veh, RB1 / RFU, PPFIA1 / Fold change vs veh, PPFIA1 / RFU, MAT2A / Fold change vs veh, MAT2A / RFU, CCT5 / Fold change vs veh, CCT5 / RFU, WDR92 / Fold change vs veh, WDR92 / RFU, CUX1 / Fold change vs veh, CUX1 / RFU, TTC7A / Fold change vs veh, TTC7A / RFU, TMEM135 / Fold change vs veh, TMEM135 / RFU, DEPTOR / Fold change vs veh, DEPTOR / RFU, CPM / Fold change vs veh, CPM / RFU, DNAJB6 / Fold change vs veh, DNAJB6 / RFU, CACNA2D3 / Fold change vs veh, CACNA2D3 / RFU, DTX4 / Fold change vs veh, DTX4 / RFU, TFCP2 / Fold change vs veh, TFCP2 / RFU, GMCL1 /// GMCL1P1 / Fold change vs veh, GMCL1 /// GMCL1P1 / RFU, AEBP2 / Fold change vs veh, AEBP2 / RFU, SNHG1 /// SNORD22 /// SNORD25 /// SNORD26 /// SNORD27 /// SNORD28 /// SNORD29 /// SNORD31 / Fold change vs veh, SNHG1 /// SNORD22 /// SNORD25 /// SNORD26 /// SNORD27 /// SNORD28 /// SNORD29 /// SNORD31 / Fold change (Aza/veh), C12orf56 (ProbeSet 11735607_a_at) / Fold change (ACY-1035/veh), C12orf56 (ProbeSet 11735607_a_at) / Fold change (Aza/veh), FGFR1OP (ProbeSet 11751329_s_at) / Fold change (ACY-1035/veh), FGFR1OP (ProbeSet 11751329_s_at) / Fold change (Aza/veh), VPS36 (ProbeSet 11739960_a_at) / Fold change (ACY-1035/veh), VPS36 (ProbeSet 11739960_a_at) / RFU SYPL1 (11715823_x_at) / Fold change /veh SYPL1 (11715823_x_at) / RFU IGFBP7 (11715501_s_at) / Fold change /veh IGFBP7 (11715501_s_at) / RFU REEP3 (11722064_at) / Fold change /veh REEP3 (11722064_at) / RFU IGLL1 (11728026_x_at) / Fold change /veh IGLL1 (11728026_x_at): dose or concentration left out as unconfirmed
Details: ProbeSet 11756954_s_at; LIST B

SMILES: Nc1ncn([C@@H]2O[C@H](CO)[C@@H](O)[C@H]2O)c(=O)n1 [azacitidine]
- Fold change vs veh, ZEB2: 0.83
